Measurements taken from US11608341B2, “Substituted tetrahydropyrazolo[3,4-d]pyrimidines and tetrahydropyrazolo[4,3-d]pyrimidines as C5A receptor modulators” (Idorsia Pharmaceuticals Ltd., priority 2018, dated 2023).

Biological target: T1, C5AR1 (Homo sapiens, UniProt P21730)
T1 construct: host or cells: CHO-K1
T1 sequence (P21730 1-350): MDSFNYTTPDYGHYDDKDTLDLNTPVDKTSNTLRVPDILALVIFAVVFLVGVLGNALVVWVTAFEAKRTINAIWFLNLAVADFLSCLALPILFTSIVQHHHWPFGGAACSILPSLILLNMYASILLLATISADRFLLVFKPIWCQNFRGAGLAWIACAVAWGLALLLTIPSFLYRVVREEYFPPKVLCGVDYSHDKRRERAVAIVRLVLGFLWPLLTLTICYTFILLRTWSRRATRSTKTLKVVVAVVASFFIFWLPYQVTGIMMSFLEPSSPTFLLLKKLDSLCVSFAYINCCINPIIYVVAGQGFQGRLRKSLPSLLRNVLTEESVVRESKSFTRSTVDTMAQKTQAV
Experiment: In vitro assay: antagonism of C5a-induced beta-arrestin recruitment (PathHunter) in CHO-K1 C5AR1 beta-arrestin cell line
Assay type: cell-based
Settings: antagonistic activity, 1-10 nM C5a agonist, geometric mean where several measurements, read-out: C5aR IC50
Method: 5 μl Antagonist at 6-fold end concentration or DMSO control is added to assay medium and subsequently 5 μl 1-10 nM C5a agonist at 6 fold end concentration. Cells are centrifuged for 1 min at 1000 rpm and incubated for 1.5 hour in at 37° C. Plates are equilibrated at room temperature for several minutes before adding 12 μl/well Detection Reagent (PathHunter Detection Kit, DiscoverX, Cat #93-0001). Plates are centrifuged for 1 min at 1000 rpm and incubated for 45 minutes at RT before being measured on a Fluostar Optima, BMG Labtech. IC50 values are calculated from a serial dilution range of antagonist using inhouse software and given in nmol/l.
The calculated IC50 values may fluctuate depending on the daily cellular assay performance. Fluctuations of this kind are known to those skilled in the art. Average IC50 values from several measurements are given as geometric mean values.

| IC50 [nM] | Compound |
| --- | --- |
| 13 | Cc1cccc(F)c1N1CCC(N2Cc3cn(C(C)C(F)F)nc3N(Cc3ccccc3C(F)(F)F)C2=O)CC1 (single isomer, unassigned) [Example 187] |
| 238 | Cc1cccc(C)c1N1CCC(N2Cc3cn(C)nc3N(Cc3ccccc3C(F)(F)F)C2=O)C1 (single isomer, unassigned) [Example 58] |
| 285 | Cc1cccc(F)c1N1CCC(N2C(=O)N(Cc3ccccc3C(F)(F)F)c3nn(CC(C)(F)F)cc3C2C)CC1 (single isomer, unassigned) [Example 306] |
| 10 | Cc1cccc(F)c1N1CCC(N2Cc3cn(CC(C)F)nc3N(Cc3ccccc3C(F)(F)F)C2=O)CC1 (single isomer, unassigned) [Example 185] |
| 109 | Cc1cccc(F)c1N1CCC(C)(N2Cc3cn(C)nc3N(Cc3ccccc3C(F)(F)F)C2=O)C1 (single isomer, unassigned) [Example 234] |
| 8 | Cc1cccc(F)c1N1CCC(N2C(=O)N(Cc3ccccc3C(F)(F)F)c3nn(C)cc3C2C)CC1 (single isomer, unassigned) [Example 220] |
| 81 | Cc1cccc(F)c1N1CCC(N2Cc3cn(C4CN(S(=O)(=O)N(C)C)C4)nc3N(Cc3ccccc3C(F)(F)F)C2=O)CC1 [Example 137] |
| 216 | Cc1cccc(F)c1N1CC(N2Cc3cn(C)nc3N(Cc3ccccc3C(F)(F)F)C2=O)C1 [Example 264] |
| 16 | Cc1cccc(F)c1N1CCC(N2Cc3cn(C)nc3N(Cc3c(F)cccc3C(F)(F)F)C2=O)CC1 [Example 61] |
| 10 | CC1c2nn(C3CC3)cc2N(Cc2ccccc2C(F)(F)F)C(=O)N1C1CCN(c2c(F)cccc2Cl)CC1 (single isomer, unassigned) [Example 328] |
| 14 | Cc1cccc(F)c1N1CCC(N2Cc3nn(C4CC4)cc3N(Cc3ccccc3C(F)(F)F)C2=O)CC1 [Example 175] |
| 193 | COc1nccc(C)c1N1CCC(N2C(=O)N(Cc3ccccc3C3CC3)c3cn(C4CCCCO4)nc3C2C)CC1 (stereo not drawn) [Example 269] |
| 14 | Cc1cccc(F)c1N1CCC(N2Cc3c[nH]nc3N(Cc3ncccc3C(F)(F)F)C2=O)CC1 [Example 193] |
| 15 | COc1nccc(C)c1N1CCC(N2C(=O)N(Cc3ccccc3C(F)(F)F)c3cn(C4CC4)nc3C2C)CC1 (single isomer, unassigned) [Example 296] |
| 350 | Cc1cccc(F)c1N1CCC(N2Cc3cn(CC(C)N)nc3N(Cc3ccccc3C(F)(F)F)C2=O)CC1 (stereo not drawn) [Example 80] |
| 37 | COc1nccc(C)c1N1CCC(N2Cc3cn(C)nc3N(C(C)c3ccccc3C(F)(F)F)C2=O)CC1 (single isomer, unassigned) [Example 287] |
| 7 | COc1nccc(C(F)F)c1N1CCC(N2C(=O)N(Cc3ccccc3C(F)(F)F)c3nn(C)cc3C2C)CC1 (single isomer, unassigned) [Example 346] |
| 17 | Cc1cccc(F)c1N1CCC(N2Cc3cn(C[C@H]4CCN4C(=O)OC(C)C)nc3N(Cc3ccccc3C(F)(F)F)C2=O)CC1 [Example 135] |
| 918 | CC1c2c[nH]nc2N(Cc2ccccc2C(F)(F)F)C(=O)N1C1CCN(c2c(F)cccc2C(F)F)CC1 (single isomer, unassigned) [Example 349] |
| 13 | Cn1cc2c(n1)N(Cc1ccccc1C(F)(F)F)C(=O)N(C1CCN(c3c(F)cccc3F)CC1)C2 [Example 273] |
| 17 | COC[C@H](O)Cn1cc2c(n1)N(Cc1ccccc1C(F)(F)F)C(=O)N(C1CCN(c3c(C)cccc3F)CC1)C2 [Example 41] |
| 13 | CC1c2cn(C3CC3)nc2N(Cc2ccccc2C(F)(F)F)C(=O)N1C1CCN(c2c(F)cccc2C(F)F)CC1 (single isomer, unassigned) [Example 311] |
| 75 | CC(c1ccccc1C(F)(F)F)N1C(=O)N(C2CCN(c3c(F)cccc3C#N)CC2)Cc2cn(C)nc21 (single isomer, unassigned) [Example 288] |

Further lines, the molecule ahead of its results:

| Compound | IC50 [nM] |
| --- | --- |
| CC1c2nn(C3CC3)cc2N(Cc2ccccc2C(F)(F)F)C(=O)N1C1CCN(c2c(F)cccc2Cl)CC1 (single isomer, unassigned) [Example 327] | 520 |
| Cc1cccc(F)c1N1CCC(N2Cc3cn(C4CC4)nc3N(Cc3ccccc3C(F)(F)F)C2=O)CC1 [Example 174] | 7 |
| Cc1cccc(F)c1N1CCC(N2Cc3cn(C(C)(C)CO)nc3N(Cc3ccccc3C(F)(F)F)C2=O)CC1 [Example 32] | 14 |
| COc1nccc(C)c1N1CCC(N2C(=O)N(Cc3ccccc3C3CC3)c3nn(C4CC4)cc3C2C)CC1 (single isomer, unassigned) [Example 381] | 190 |
| Cc1cccc(F)c1N1CCC(N2Cc3cn(C4CN(C(=O)OC5(C(F)(F)F)COC5)C4)nc3N(Cc3ccccc3C(F)(F)F)C2=O)CC1 [Example 140] | 18 |
| CCc1cccc(F)c1N1CCC(N2Cc3cn(C)nc3N(Cc3ccccc3C(F)(F)F)C2=O)CC1 [Example 299] | 402 |
| Cc1cccc(F)c1N1CCC(N2Cc3cn(C)nc3N(Cc3ccccc3OCC3CC3)C2=O)CC1 [Example 248] | 16 |
| Cc1cccc(F)c1N1CCC(N2Cc3cn(CCN)nc3N(Cc3ccccc3C(F)(F)F)C2=O)CC1 [Example 26] | 173 |
| COc1nccc(C(F)F)c1N1CCC(N2C(=O)N(Cc3ccccc3C(F)(F)F)c3n[nH]cc3C2C)CC1 (single isomer, unassigned) [Example 353] | 997 |
| COc1nccc(C(F)F)c1N1CCC(N2C(=O)N(Cc3ccccc3C(F)(F)F)c3nn(C4CC4)cc3C2C)CC1 (single isomer, unassigned) [Example 358] | 12 |
| COc1nccc(Cl)c1N1CCC(N2C(=O)N(Cc3ccccc3C(F)(F)F)c3nn(C)cc3C2C)CC1 (single isomer, unassigned) [Example 377] | 552 |
| CC1c2cn(C)nc2N(Cc2ccccc2C(F)(F)F)C(=O)N1C1CCN(c2c(F)cccc2Cl)CC1 (single isomer, unassigned) [Example 319] | 2 |
| Cc1nc2c(s1)N(Cc1ccccc1C(F)(F)F)C(=O)N(C1CCN(c3c(C)cccc3F)CC1)C2 [Example 90] | 153 |
| Cc1cccc(F)c1N1CCC(N2Cc3cn(CCN(C)C4CC4)nc3N(Cc3ccccc3C(F)(F)F)C2=O)CC1 [Example 73] | 17 |
| Cc1cccc(F)c1N1CCC(N2Cc3cn(C(C)(NC(=O)OC(C)(C)C)C(F)(F)F)nc3N(Cc3ccccc3C(F)(F)F)C2=O)CC1 (stereo not drawn) [Example 83] | 75 |
| Cc1cccc(F)c1N1CCC(N2Cc3nn(CC(C)(C)F)cc3N(Cc3ccccc3C(F)(F)F)C2=O)CC1 [Example 176] | 16 |
| Cc1cccc(F)c1N1CCC(N2Cc3cn(CC(C)C)nc3N(Cc3ccccc3C(F)(F)F)C2=O)CC1 [Example 155] | 25 |
| Cc1cccc(F)c1N1CCC(N2Cc3cn(C4CN(C(=O)OC5(C)COC5)C4)nc3N(Cc3ccccc3C(F)(F)F)C2=O)CC1 [Example 141] | 21 |
| Cc1nn(C)c(N2CCC(N3Cc4cn(C)nc4N(Cc4ccccc4C(F)(F)F)C3=O)CC2)c1C#N [Example 229] | 550 |
| Cc1cccc(F)c1N1CCC(N2Cc3cn(CC(C)(C)O)nc3N(Cc3ccccc3C(F)(F)F)C2=O)CC1 [Example 25] | 18 |
| Cc1cccc(F)c1N1CCC(C)(N2Cc3cn(C)nc3N(Cc3ccccc3C(F)(F)F)C2=O)C1 (single isomer, unassigned) [Example 235] | 169 |
| Cc1cccc(F)c1N1CCC(N2Cc3cn(C)nc3N(Cc3ccccc3OC(C)C)C2=O)CC1 [Example 251] | 9 |
